# According to US20250134887A1, “METHODS OF TREATING PROSTATE CANCER” (AstraZeneca AB, priority 2022, published 2025):
# System: patients with mCRPC
# Assay: PROpel phase III trial: safety, adverse events (CTCAE v.4.03)
# Format: in vivo, human
# Experimental: Trial design and interventions. This was a double-blind, placebo-controlled, phase Ill trial. Eligible patients were randomized (1:1) to treatment with abiraterone acetate (1000 mg once daily) in combination with either olaparib (300 mg twice daily) or placebo. All patients received prednisone or prednisolone (5 mg twice daily) as per the abiraterone acetate label requirement. Randomization was stratified by distant metastasis type (bone only/visceral/other) at baseline and by docetaxel treatment at the mHSPC stage of disease (yes or no). Study treatment continued until objective imaging-based progressive disease assessed by investigator (using Response Evaluation Criteria in Solid Tumors [RECIST 1.1] for soft tissue lesions and Prostate Cancer Working Group-3 [PCWG-3] criteria for bone lesions), unacceptable toxicity, or withdrawal of consent. Following objective disease progression, further treatment options were at the discretion of the investigator. Patients could continue study treatment if the investigator believed, that the patient could continue to receive clinical benefit, was not experiencing serious toxicity and there was no available better alternative treatment. Crossover from placebo to receive olaparib in combination with abiraterone acetate was not allowed.
# Safety was assessed through reporting of adverse events and serious adverse events (according to Common Terminology Criteria for Adverse Events v.4.03) based on physical examination findings, vital signs, ECG findings and laboratory test results.
# Statistical analysis. Efficacy was analyzed for the intention-to-treat population and safety was analyzed for all patients who received any amount of abiraterone acetate, olaparib, or placebo. Patients who received at least one dose of olaparib were included in the abiraterone acetate and olaparib arm.
# [1] = male, human, in vivo, 15.7 months
compound,measurement,setting,value
"CC(=O)O[C@H]1CC[C@@]2(C)C(=CC[C@@H]3[C@@H]2CC[C@]2(C)C(c4cccnc4)=CC[C@@H]32)C1 [abiraterone acetate and placebo, (3β)-17-(3-pyridinyl) androsta-5,16-dien-3-yl acetate]","Anemia, % of patients",All Grades,(16.4) %
same,"Anemia, number of patients",All Grades,65
same,"Any adverse event, % of patients",All Grades,(94.9) %
same,"Any adverse event, number of patients",All Grades,376
same,"Arthralgia, % of patients",All Grades,(17.7) %
same,"Arthralgia, number of patients",All Grades,70
same,"Back pain, % of patients",All Grades,(18.4) %
same,"Back pain, number of patients",All Grades,73
same,"Cardiac failure adverse events, % of patients",All Grades,(1.3) %
same,"Cardiac failure adverse events, number of patients",All Grades,5
same,"Constipation, % of patients",All Grades,(13.9) %
same,"Constipation, number of patients",All Grades,55
same,"Decreased appetite, % of patients",All Grades,(5.8) %
same,"Decreased appetite, number of patients",All Grades,23
same,"Diarrhea, % of patients",All Grades,(9.3) %
same,"Diarrhea, number of patients",All Grades,37
same,"Dizziness, % of patients",All Grades,(6.3) %
same,"Dizziness, number of patients",All Grades,25
same,"Embolic and thrombotic arterial adverse events, % of patients",All Grades,(2.5) %
same,"Embolic and thrombotic arterial adverse events, number of patients",All Grades,10
same,"Fatigue or asthenia, % of patients",All Grades,(28.3) %
same,"Fatigue or asthenia, number of patients",All Grades,112
same,"Hypertension, % of patients",All Grades,(16.4) %
same,"Hypertension, number of patients",All Grades,65
same,"Nausea, % of patients",All Grades,(12.6) %
same,"Nausea, number of patients",All Grades,50
same,"Peripheral edema, % of patients",All Grades,(11.4) %
same,"Peripheral edema, number of patients",All Grades,45
same,"Urinary tract infection, % of patients",All Grades,(7.8) %
same,"Urinary tract infection, number of patients",All Grades,31
same,"Vomiting, % of patients",All Grades,(9.1) %
same,"Vomiting, number of patients",All Grades,36
same,"Anemia, % of patients",Grade ≥ 3,3.3%
same,"Anemia, number of patients",Grade ≥ 3,13
same,"Any adverse event, % of patients",Grade ≥ 3,(38.4) %
same,"Any adverse event, number of patients",Grade ≥ 3,152
same,"Arthralgia, % of patients",Grade ≥ 3,(0.5) %
same,"Arthralgia, number of patients",Grade ≥ 3,2
same,"Back pain, % of patients",Grade ≥ 3,(1.0) %
same,"Back pain, number of patients",Grade ≥ 3,4
same,"COVID-19, % of patients",Grade ≥ 3,2.0%
same,"COVID-19, cases",Grade ≥ 3,8
same,"Constipation, % of patients",Grade ≥ 3,(0.3) %
same,"Constipation, number of patients",Grade ≥ 3,1
same,"Decreased appetite, number of patients",Grade ≥ 3,0
same,"Diarrhea, % of patients",Grade ≥ 3,(0.3) %
same,"Diarrhea, number of patients",Grade ≥ 3,1
same,"Dizziness, number of patients",Grade ≥ 3,0
same,"Fatigue or asthenia, % of patients",Grade ≥ 3,(1.5) %
same,"Fatigue or asthenia, number of patients",Grade ≥ 3,6
same,"Hypertension, % of patients",Grade ≥ 3,(3.3) %
same,"Hypertension, number of patients",Grade ≥ 3,13
same,"Nausea, % of patients",Grade ≥ 3,(0.3) %
same,"Nausea, number of patients",Grade ≥ 3,1
same,"Peripheral edema, % of patients",Grade ≥ 3,(0.3) %
same,"Peripheral edema, number of patients",Grade ≥ 3,1
same,"Urinary tract infection, % of patients",Grade ≥ 3,(1.0) %
same,"Urinary tract infection, number of patients",Grade ≥ 3,4
same,"Vomiting, % of patients",Grade ≥ 3,(0.3) %
same,"Vomiting, number of patients",Grade ≥ 3,1
same,"Anemia, % of patients","Grade ≥ 3, listed as Abiraterone and Placebo",(3.3) %
same,"COVID-19, % of patients",all grades,4.5%
same,"COVID-19, cases",all grades,18
same,"Any serious adverse event, % of patients","human, in vivo, 15.7 months",(27.0) %
same,"Any serious adverse event, number of patients","human, in vivo, 15.7 months",107
same,"Death due to an adverse event, % of patients","human, in vivo, 15.7 months",(4.3) %
same,"Death due to an adverse event, number of patients","human, in vivo, 15.7 months",17
same,"Discontinuation of abiraterone acetate due to an adverse event, % of patients","human, in vivo, 15.7 months",(8.8) %
same,"Discontinuation of abiraterone acetate due to an adverse event, number of patients","human, in vivo, 15.7 months",35
same,"Discontinuation of olaparib/placebo due to an adverse event, % of patients","human, in vivo, 15.7 months",(7.8) %
same,"Discontinuation of olaparib/placebo due to an adverse event, number of patients","human, in vivo, 15.7 months",31
same,"Dose reduction of abiraterone acetate due to an adverse event, % of patients","human, in vivo, 15.7 months",(4.3) %
same,"Dose reduction of abiraterone acetate due to an adverse event, number of patients","human, in vivo, 15.7 months",17
same,"Dose reduction of olaparib/placebo due to an adverse event, % of patients","human, in vivo, 15.7 months",(5.6) %
same,"Dose reduction of olaparib/placebo due to an adverse event, number of patients","human, in vivo, 15.7 months",22
same,"Interruption of abiraterone acetate because of an adverse event, % of patients","human, in vivo, 15.7 months",(22.0) %
same,"Interruption of abiraterone acetate because of an adverse event, number of patients","human, in vivo, 15.7 months",87
same,"Interruption of olaparib/placebo because of an adverse event, % of patients","human, in vivo, 15.7 months",(25.3) %
same,"Interruption of olaparib/placebo because of an adverse event, number of patients","human, in vivo, 15.7 months",100
same,"Deep-vein thrombosis, patients",in vivo,three
same,"pulmonary embolism, cases",in vivo,seven
same,"Deep-vein thrombosis, % of patients",[1],0.8%
same,"new primary cancers, % of patients",[1],2.5%
same,"new primary cancers, reports",[1],10
same,"pulmonary embolism, % of patients",[1],1.8%
